Assay results published in patent US20180103668A1, “CYCLOHEXANECARBOXYLIC ACIDS FOR SELECTIVE TASTE MASKING” (INTERNATIONAL FLAVORS & FRAGRANCES INC., priority 2015, published 2018).

Legend:
[1] = Bitter taste-masking effect; details: for Intensity Score (bitter taste-masking effect): 10 ppm in water, caffeine 0.07%, scale 0 to 10: 0=total masking, 2=intense masking, 5=moderate masking, 8=weak masking, 10=no masking; for bitter taste-masking effect (in words): 10 ppm, caffeine solution 0.07%
Description: (§1) A series of cyclohexanecarboxylic acid solutions in the following were prepared (10 ppm in water):
Caffeine solution (0.07% by weight in water) was prepared and used to evaluate the bitter taste-masking effect of cyclohexanecarboxylic acids, which is expressed using an intensity scale of 0 to 10, where 0=total masking, 2=intense masking, 5=moderate masking, 8=weak masking and 10=no masking.

[2] = Sour taste-masking effect; details: 10 ppm in water; scale 0 to 10: 0=total masking, 2=intense masking, 5=moderate masking, 8=weak masking, 10=no masking; same in both lactic acid and citric acid
Description: as §1
Lactic acid solution (0.09% by weight in water) and citric acid solution (0.07% by weight in water) were prepared and used, respectively, to evaluate the sour taste-masking effect of cyclohexanecarboxylic acids, which is expressed using an intensity scale of 0 to 10, where 0=total masking, 2=intense masking, 5=moderate masking, 8=weak masking and 10=no masking.

Q: With `O=C(/C=C/c1ccc(O)c(O)c1)O[C@@H]1[C@H](O)C[C@@](O)(C(=O)O)C[C@H]1OC(=O)/C=C/c1ccc(O)c(O)c1` [Formula IV, (1S,3R,4R,5R)-3,4-bis[[3-(3,4-dihydroxyphenyl)-1-oxo-2-propenyl]oxy]-1,5-dihydroxy-cyclohexanecarboxylic acid] as the compound, how does the “Intensity Score (bitter taste-masking effect)” value [1] read?
A: Its value is 2.

Q: What about the “bitter taste-masking effect (in words)” value [1] of the same compound?
A: Its value is “particularly intense and lasting bitter taste-masking effect”.

Q: And the “Intensity Score (sour taste-masking effect)” value [2]?
A: The value was 8.

Q: Which “Intensity Score (bitter taste-masking effect)” value [1] does the source give for `O=C(/C=C/c1ccc(O)c(O)c1)O[C@H]1[C@H](O)C[C@](O)(C(=O)O)C[C@H]1OC(=O)/C=C/c1ccc(O)c(O)c1` [Formula VI, (1R,3R,4S,5R)-3,4-bis[[3-(3,4-dihydroxyphenyl)-1-oxo-2-propen-1-yl]oxy]-1,5-dihydroxy-cyclohexanecarboxylic acid] here?
A: Its value is 2.

Q: What about the “bitter taste-masking effect (in words)” value [1] of the same compound?
A: The value was “particularly intense and lasting bitter taste-masking effect”.

Q: What about the “Intensity Score (sour taste-masking effect)” value [2] of the same compound?
A: Its value is 8.

Q: For `O=C(/C=C/c1ccc(O)c(O)c1)OC1C[C@@](O)(C(=O)O)C[C@@H](OC(=O)/C=C/c2ccc(O)c(O)c2)[C@@H]1O` (stereo partly drawn) [Formula V, (1α,3R,4α,5R)-3,5-bis[[3-(3,4-dihydroxyphenyl)-1-oxo-2-propen-1-yl]oxy]-1,4-dihydroxy-cyclohexanecarboxylic acid], which “Intensity Score (bitter taste-masking effect)” value [1] is on record?
A: Its value is 3.

Q: And the “bitter taste-masking effect (in words)” value [1]?
A: Its value is “particularly intense and lasting bitter taste-masking effect”.

Q: What about the “Intensity Score (sour taste-masking effect)” value [2] of the same compound?
A: Its value is 8.
